Data as given in patent US12611380B2, “Solution and method for reducing the virulence of viruses, bacteria, yeasts, or fungus” (priority 2020, dated 2026).
In brackets after ≈: the same amount, converted by molar mass. Several values for one entry are separate records, joined by “and”; a condition that tells them apart may be missing. Equal values may be shown once. Starred links: 1 amine or outer side, 2 acyl side, 3 side chain; linkers in the order of their positions; H or OH if unused. Positions of bridges follow the written chain, without caps; N, C: chain ends. Non-standard residues stand in square brackets, D forms with d. Residues, ends and D or L forms follow the SMILES beside them. *: point of attachment. hTyr(3S-OH,4S-OH,3'-OSO3H) = N[C@H](C(=O)O)[C@H](O)[C@@H](O)c1ccc(O)c(OS(=O)(=O)O)c1; Orn(4R-OH,5R-OH) = O=C([C@H](C[C@@H](O)[C@@H](O)N[*:3])N[*:1])[*:2]; Pro(3S-OH,4S-Me) = C[C@H]1CN[C@H](C(=O)O)[C@H]1O; X1 = CCCCCOc1ccc(-c2cc(-c3ccc(C(=O)*)cc3)no2)cc1; Gln(3R-OH) = NC(=O)C[C@@H](O)[C@H](N)C(=O)O; Hyp = O=C(O)[C@@H]1C[C@@H](O)CN1

Experiments:
[1] = type: physicochemical; settings: for Viscosity: 6% of the named additive added to 8% ILCS (potassium) hydro-gel; for reduction in viscosity: 6% additive in ILCS gel, 140° F. 1-3 days then 108° F. 2-4 days
Description: A simple viscometer, Digital Viscosity Meter (NDJ-8S, Shaoxing Worner Lab Equipment Co., Ltd., China) was used, recognizing the limitations of measuring a solid gelatin hydro-gel. […] The ILCS was initially incubated at 120° F. overnight, equilibrated at […]. prior to viscometry.
ILCS was made from potassium hydroxide (Spectrum Chemical, Louisville, KY), isomerized linoleic acid (Stepan, New Jersey), and USP WFI water (Ceela Naturals), to a final concentration 8% or 333 mM Potassium Linoleate (isomerized).
Many of the amino acids tested were purchased from Ajinomoto (NJ, USA), while tryptophan, proline, and phenylalanine were obtained from Purebulk (Oregon, USA). The Quorum Sensing Agent phenylethanol was purchased from Sigma Aldrich (GA, USA).
The gel and compound were incubated at 140° F. for 1-3 days followed by incubation 108° F. for 2-4 days.

Candida auris, (AR-0381) = settings: isolate AR Isolate Bank #0381; cited from earlier work
SARS-COV-2 = test: Virucidal assay, 2 minutes contact, end-point titer (CCID50) on Vero 76 cells; settings: Ethanol 63%, 2 minutes
microbial growth = test: Reduction in microbial growth; type: cell-based; settings: potassium hexadiene at pH 9
[2] = system: Candida albicans (ATCC 10231); test: EPA protocol MB-35-00 hard surface carrier disinfection test
Description: (§1) We used EPA protocol MB-35-00 for testing disinfectants against C. auris (US Environmental Protection Agency. 2017, 2020) and C. albicans ATCC 10231, a yeast common in package spoilage of food and cosmetics.
(§2) We tested 5 batches produced with difference sources of isomerized linoleic acid (Test Substances 1-5).
(§3) The EPA test protocol for testing hard surface disinfection of C. auris (AR0381) with antifungal resistance includes an overnight culture of C. auris (AR.0381) shaken at 200 rpm at 30° C. From this culture, 8 mL was harvested by centrifugation, re-suspended in 2-3 mL phosphate-buffered saline (PBS), and mixed with a 3-part soil load including bovine serum albumin (BSA), yeast extract, and mucin. Metal carriers (10 mm) were inoculated (10 μL culture+soil load) and dried in a desiccator under vacuum (˜70 min). The disk surface was coated with the test substance at 0.42 M (50 μL) for up to 10 min. Following incubation, the carriers were transferred to 10 mL neutralization solution (Sabouraud Dextrose Broth [SDB], a common yeast-mold growth media) for subsequent harvesting on membrane filters. The filtered membranes were transferred to Sabouraud Dextrose Emmons Agar (SDEA) plates to culture for 120 hours at 31° C. Controls consisted of PBS (50 μL) applied to inoculated metal disk carriers, subsequently transferred to 10 mL neutralization solution (SDB), diluted serially in PBS, and plated directly to SDEA plates, See FIG. 2.
(§4) We prepared and qualified these per EPA protocol (US Environmental Protection Agency, 2017). • Soil Stocks: We prepared soil stocks with yeast extract powder (Ref RM027) purchased from Himedia, BSA (A2153) purchased from Sigma Life Science, and gastric mucin (cat #HY-B2196/CS-7626) purchased from Mod Chem Express per SOP MB-35-00 (US Environmental Protection Agency, 2017). • Cell Harvesting: We removed cells from the growth culture media using a Micro-Centrifuge obtained from Changzhou Jintan Sanhe Instrument Co., LTD. (Model TGI6-W) at 10,000×g for 10 min in screw-top-cap vials purchased from Heathrow Scientific (Item HS 100600). The optical density of the inoculate was defined at 15-19 OD600 in PBS with the Ultrospec 10 Cell Density Meter from BioChrom (Holliston, MA, USA) prior to dilution in the soil load. Samples were diluted 1:10 in PBS to obtain absorbance readings between 1.5 and 1.9. • Membrane Filtration: Treated yeasts were collected using a combination of the Rocker (Cat #200300-01) and 47 mm PES membranes with a 0.45 micron pore size obtained from Sterlitech (Catalog #PE54547100).

[3] = second experiment, Tables 8 and 9
[4] = second experiment, positive control, Table 5
[5] = all testing runs (Tables 2 and 3)

Description for Candida auris (AR-0381): as §1, §2, §3, §4

Row | Compound | Viscosity [1] | MIC (Candida auris, (AR-0381)) | also measured
1 | C[C@H](N)C(=O)O [Alanine] | 40700 milliPoise |  | 
2 | C[C@@H]1[C@H](O)[C@@H](C)/C=C/C=C/C=C/C=C/C=C/C=C/C=C/[C@H](O[C@@H]2O[C@H](C)[C@@H](O)[C@H](N)[C@@H]2O)C[C@@H]2O[C@](O)(C[C@@H](O)C[C@@H](O)[C@H](O)CC[C@@H](O)C[C@@H](O)CC(=O)O[C@H]1C)C[C@H](O)[C@H]2C(=O)O [Amphotericin 81] |  | 0.38 µg/mL (≈ 0.411 µM) | 
3 | N=C(N)NCCC[C@H](N)C(=O)O [Arginine] | 25600 milliPoise |  | 
4 | N[C@@H](CC(=O)O)C(=O)O [Aspartic acid] | 25100 milliPoise |  | 
5 | CC[C@H](C)C[C@H](C)CCCCCCCCC(=O)N[C@H]1C[C@@H](O)[C@@H](NCCN)NC(=O)[C@@H]2[C@@H](O)CCN2C(=O)[C@H]([C@H](O)CCN)NC(=O)[C@H]([C@H](O)[C@@H](O)c2ccc(O)cc2)NC(=O)[C@@H]2C[C@@H](O)CN2C(=O)[C@H]([C@@H](C)O)NC1=O [Caspofungin] |  | 0.13 µg/mL (≈ 0.119 µM) | 
6 | Cl.N[C@@H](CS)C(=O)O [Cysteine-HCl] | 28400 milliPoise |  | 
7 | CC(C)(CO)C(O)C(=O)NCCCO (stereo not drawn) [D L Panthenol] | 28650 milliPoise |  | 
8 | CC(C)(CO)[C@@H](O)C(=O)NCCCO [D Panthenol] | 31600 milliPoise |  | 
9 | CCO [Ethanol, reference compound] |  |  | toxicity to cells in titer plates (Vero 76 cells): toxic to cells; LRV (log reduction value) (SARS-COV-2; Table 7): >1.8; Virus Titer (SARS-COV-2; Table 7): <1.7 Log10 CCID50of virus per 0.1 mL; LRV (log reduction value) (SARS-COV-2; positive control, Table 4): >1.8; Virus Titer (SARS-COV-2; positive control, Table 4): <1.7 Log10 CCID50 of virus per 0.1 mL; LRV (log reduction value) (SARS-COV-2; [3]): >2.0; Virus Titer (SARS-COV-2; [3]): <1.7 Log10 CCID50of virus per 0.1 mL; LRV (log reduction value) (SARS-COV-2; [4]): >2.0; Virus Titer (SARS-COV-2; [4]): <1.7 Log10 CCID50 of virus per 0.1 mL
10 | OC(Cn1cncn1)(Cn1cncn1)c1ccc(F)cc1F [Fluconazolc, fluconazole] |  | 4.00 µg/mL (≈ 13.1 µM) | 
11 | Nc1[nH]c(=O)ncc1F [Flucytosine] |  | 2.00 µg/mL (≈ 15.5 µM) | 
12 | N[C@@H](Cc1c[nH]cn1)C(=O)O [Histidine base] | 28050 milliPoise |  | 
13 | CC[C@H](C)[C@H](N)C(=O)O [Iso-Leucine] | 29900 milliPoise |  | 
14 | CCC(C)n1ncn(-c2ccc(N3CCN(c4ccc(OCC5COC(Cn6cncn6)(c6ccc(Cl)cc6Cl)O5)cc4)CC3)cc2)c1=O (stereo not drawn) [Iuaconazole, itraconazole] |  | 0.13 µg/mL (≈ 0.184 µM) | 
15 | NCCCC[C@H](N)C(=O)O [Lysine base] | 26900 milliPoise |  | 
16 | Cl.NCCCC[C@H](N)C(=O)O [Lysine-hcl] | 30700 milliPoise |  | 
17 | CSCC[C@H](N)C(=O)O [Methionine] | 32350 milliPoise |  | 
18 | CCCCCOc1ccc(-c2cc(-c3ccc(C(=O)N[C@H]4C[C@@H](O)[C@@H](O)NC(=O)[C@@H]5[C@@H](O)[C@@H](C)CN5C(=O)[C@H]([C@H](O)CC(N)=O)NC(=O)[C@H]([C@H](O)[C@@H](O)c5ccc(O)c(OS(=O)(=O)O)c5)NC(=O)[C@@H]5C[C@@H](O)CN5C(=O)[C@H]([C@@H](C)O)NC4=O)cc3)no2)cc1 [Micafungin] (X1-[Orn(4R-OH,5R-OH)]T[Hyp][hTyr(3S-OH,4S-OH,3'-OSO3H)][Gln(3R-OH)][Pro(3S-OH,4S-Me)]; lactam 1-C) |  | 0.13 µg/mL (≈ 0.102 µM) | 
19 | NC(=O)c1cccnc1 [Niacinamide] | 33800 milliPoise |  | 
20 | N[C@@H](Cc1ccccc1)C(=O)O [Phenylalanine] | 130 milliPoise |  | reduction in viscosity [1]: two log-reduction in viscosity
21 | CC[C@@H]([C@H](C)O)n1ncn(-c2ccc(N3CCN(c4ccc(OC[C@@H]5CO[C@@](Cn6cncn6)(c6ccc(F)cc6F)C5)cc4)CC3)cc2)c1=O [Posaconazolc, posaconazole] |  | 0.06 µg/mL (≈ 0.0856 µM) | 
22 | C/C=C/C=C/C(=O)[O-].[K+] [Potassium Sorbate, Potassium sorbate] |  |  | reduction in microbial growth (microbial growth): little reduction in microbial growth; Test Disks Density (log) (Candida auris (AR-0381); Exposure 2 min., yeast recovered from treated carriers): 5.0 log and 4.9 log; kill rates (Candida auris (AR-0381); [5]): less than one log; Test Disks Density (log) ([2]; Exposure 1 min., yeast recovered from treated carriers): 4.8 log and 4.9 log; kill rates [2, 5]: less than one log
23 | N[C@@H](CO)C(=O)O [Serine] | 22300 milliPoise |  | 
24 | C[C@@H](O)[C@H](N)C(=O)O [Threonine] | 30650 milliPoise |  | 
25 | N[C@@H](Cc1c[nH]c2ccccc12)C(=O)O [Tryptophan] | 21 milliPoise |  | reduction in viscosity [1]: two log-reduction in viscosity
26 | CC(C)[C@H](N)C(=O)O [Valine] | 31850 milliPoise |  | 
27 | C[C@@H](c1ncncc1F)[C@](O)(Cn1cncn1)c1ccc(F)cc1F [Voriconazole] |  | 0.03 µg/mL (≈ 0.0859 µM) | 
28 | Anidulaftrngin |  | 0.25 µg/mL | 
